Results reported in patent publication US11702422B2, “Imidazopyridazines as modulators of IL-17” (Janssen Pharmaceutica NV, priority 2020, dated 2023).

Assays:
[1] = target: IL-17A(FLAG-Tagged): IL-17RA(His-Tagged) (Homo sapiens, UniProt Q16552, K93Q); assay: IL-17A(FLAG-Tagged): IL-17RA(His-Tagged) Binding Disruption Eu-HTRF Assay; conditions: IL-17A/IL-17RA binding disruption, simple average if tested more than once
Summary of the method: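 IC50 comes from a one-site competition fit of the HTRF 665/620 nm ratio. Compound dilutions (2-fold, 22 points) were held 1 h rt with FLAG-tagged IL-17A dimer, then His-tagged IL-17RA plus Eu-cryptate anti-FLAG and D2 anti-His antibodies were added for 2 h rt.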

[2] = tested on: IL-17A-induced G-CSF production in human normal keratinocyte (NHK); assay: NHK Assay: IL-17A-induced G-CSF production in human normal keratinocytes; format: cell-based; conditions: 24 h, adult normal human keratinocytes, IL-17A 5 ng/mL, simple average if tested more than once
Summary of the method: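 G-CSF released by primary adult human keratinocytes after 24 h at 37° C was quantified by HTRF via standard curve to give IC50. Stimulus was 5 ng/mL IL-17A pre-mixed 1 h at rt with compound dilutions, in 5% FBS and 0.2% DMSO. Cell viability was assessed in parallel with CellTiter-Glo.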

Chain of UniProt Q16552 (Q16552 with tags, fused parts or gaps K93Q): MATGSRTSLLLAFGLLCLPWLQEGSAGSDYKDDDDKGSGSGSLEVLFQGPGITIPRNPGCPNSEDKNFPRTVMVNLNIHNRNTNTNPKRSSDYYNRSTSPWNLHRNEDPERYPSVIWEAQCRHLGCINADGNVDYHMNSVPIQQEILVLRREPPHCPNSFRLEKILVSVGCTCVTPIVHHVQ

IC50 [1]	Structure (SMILES)	IC50 ([2]; Homo sapiens, Keratinocyte)	IC50 [2]
49 nM	O=C(CCC(F)(F)F)N[C@@H](c1cnn2cc([C@@H](NC(=O)c3ncnn3CCOC(F)(F)F)C3CCC(F)(F)CC3)nc2c1)C1CC1 [Example 70, N—((S)-(7-((R)-Cyclopropyl(4,4,4-trifluorobutanamido)methyl)imidazo[1,2-b]pyridazin-2-yl)(4,4-difluorocyclohexyl)methyl)-1-(2-(trifluoromethoxy)ethyl)-1H-1,2,4-triazole-5-carboxamide]	110 nM	–
16000 nM	O=C(CCC(F)(F)F)N[C@@H](c1cnn2cc([C@@H](NC(=O)c3cccc(C(F)(F)F)n3)C3CCC(F)(F)CC3)nc2c1)C1CC1 [Example 221, N—((S)-(7-((R)-Cyclopropyl(4,4,4-trifluorobutanamido)methyl)imidazo[1,2-b]pyridazin-2-yl)(4,4-difluorocyclohexyl)methyl)-6-(trifluoromethyl)picolinamide]	> 20000 nM	–
360 nM	O=C(N[C@H](c1cn2ncc([C@H](NC(=O)[C@@H](O)CC(F)(F)F)C3CC3)cc2n1)C1CCC(F)(F)CC1)c1cnn(CC(F)(F)F)n1 (relative stereo) [Example 31, N—((S)-(7-((R*)-Cyclopropyl((S*)-4,4,4-trifluoro-2-hydroxybutanamido)methyl)imidazo[1,2-b]pyridazin-2-yl)(4,4-difluorocyclohexyl)methyl)-2-(2,2,2-trifluoroethyl)-2H-1,2,3-triazole-4-carboxamide]	1300 nM	–
78 nM	Cc1nonc1C(=O)N[C@H](c1cn2ncc(C(NC(=O)CC3CC(F)(F)C3)C3(C#N)CC3)cc2n1)C1CCC(F)(F)CC1 (single isomer, unassigned) [Example 423, N—((S)-(7-((S*)-(1-Cyanocyclopropyl)(2-(3,3-difluorocyclobutyl)acetamido)methyl)imidazo[1,2-b]pyridazin-2-yl)(4,4-difluorocyclohexyl)methyl)-4-methyl-1,2,5-oxadiazole-3-carboxamide]	130 nM	–
180 nM	Cc1nonc1C(=O)N[C@H](c1cn2ncc([C@H](NC(=O)C(F)CC3CC3)C3CC3)cc2n1)C1CCC(F)(F)CC1 (single isomer, unassigned) [Example 345, N—((S)-(7-((R)-Cyclopropyl((S*)-3-cyclopropyl-2-fluoropropanamido)methyl)imidazo[1,2-b]pyridazin-2-yl)(4,4-difluorocyclohexyl)methyl)-4-methyl-1,2,5-oxadiazole-3-carboxamide]	–	670 nM
640 nM	Cc1nonc1C(=O)N[C@H](c1cn2ncc(C(NC(=O)CCC(F)(F)F)C(C)C)cc2n1)C1CCC(F)(F)CC1 (single isomer, unassigned) [Example 546, N—((S)-(4,4-Difluorocyclohexyl)(7-((R*)-2-methyl-1-(4,4,4-trifluorobutanamido)propyl)imidazo[1,2-b]pyridazin-2-yl)methyl)-4-methyl-1,2,5-oxadiazole-3-carboxamide]	–	> 20000 nM
150 nM	Cc1nonc1C(=O)N[C@H](c1cn2ncc([C@H](NC(=O)C(C)CC(F)(F)F)C3CC3)cc2n1)C1CCC(F)(F)CC1 (single isomer, unassigned) [Example 346, N—((S)-(7-((R)-Cyclopropyl((R*)-4,4,4-trifluoro-2-methylbutanamido)methyl)imidazo[1,2-b]pyridazin-2-yl)(4,4-difluorocyclohexyl)methyl)-4-methyl-1,2,5-oxadiazole-3-carboxamide]	–	440 nM
36 nM	Cc1nonc1C(=O)N[C@H](c1cn2ncc([C@H](NC(=O)CCC(F)(F)F)C3CC3)cc2n1)C1CCC(F)(F)CC1 [Example 157, N—((S)-(7-((R)-Cyclopropyl(4,4,4-trifluorobutanamido)methyl)imidazo[1,2-b]pyridazin-2-yl)(4,4-difluorocyclohexyl)methyl)-4-methyl-1,2,5-oxadiazole-3-carboxamide]	150 nM	–
100 nM	O=C(CCC(F)(F)F)N[C@@H](c1cnn2cc([C@@H](NC(=O)c3conc3C3COC3)C3CCC(F)(F)CC3)nc2c1)C1CC1 [Example 235, N—((S)-(7-((R)-Cyclopropyl(4,4,4-trifluorobutanamido)methyl)imidazo[1,2-b]pyridazin-2-yl)(4,4-difluorocyclohexyl)methyl)-3-(oxetan-3-yl)isoxazole-4-carboxamide]	220 nM	–
440 nM	CC(C)n1nccc1C(=O)N[C@H](c1cn2ncc(C(NC(=O)CC3CC(F)(F)C3)C3CCOCC3)cc2n1)C1CCC(F)(F)CC1 (single isomer, unassigned) [Example 535, N—((S)-(7-((R*)-1-(2-(3,3-Difluorocyclobutyl)acetamido)(tetrahydro-2H-pyran-4-yl)methyl)imidazo[1,2-b]pyridazin-2-yl)(4,4-difluorocyclohexyl)methyl)-1-isopropyl-1H-pyrazole-5-carboxamide]	89 nM	–
210 nM	Cc1nonc1C(=O)N[C@H](c1cn2ncc([C@H](NC(=O)CC(C)(F)F)C3CC3)cc2n1)C1CCC(F)(F)CC1 [Example 263, N—((S)-(7-((R)-Cyclopropyl(3,3-difluorobutanamido)methyl)imidazo[1,2-b]pyridazin-2-yl)(4,4-difluorocyclohexyl)methyl)-4-methyl-1,2,5-oxadiazole-3-carboxamide]	1800 nM	–
190 nM	O=C(CCC(F)(F)F)NC(c1cnn2cc([C@@H](NC(=O)c3cnn(CCC(F)(F)F)n3)C3CCC(F)(F)CC3)nc2c1)C1CC1 (single isomer, unassigned) [Example 18, N—((S)-(7-((R*)-Cyclopropyl(4,4,4-trifluorobutanamido)methyl)imidazo[1,2-b]pyridazin-2-yl)(4,4-difluorocyclohexyl)methyl)-2-(3,3,3-trifluoropropyl)-2H-1,2,3-triazole-4-carboxamide]	–	420 nM
36 nM	CC(C)c1nonc1C(=O)N[C@H](c1cn2ncc([C@H](NC(=O)CC34CC(F)(C3)C4)C3CC3)cc2n1)C1CCC(F)(F)CC1 [Example 279, N—((S)-(7-((R)-Cyclopropyl(2-(3-fluorobicyclo[1.1.1]pentan-1-yl)acetamido)methyl)imidazo[1,2-b]pyridazin-2-yl)(4,4-difluorocyclohexyl)methyl)-4-isopropyl-1,2,5-oxadiazole-3-carboxamide]	64 nM	–
34 nM	Cc1nonc1C(=O)N[C@H](c1cn2ncc([C@H](NC(=O)CC3CC(F)(F)C3)C3CC3)cc2n1)C1CCC(F)(F)CC1 [Example 142, N—((S)-(7-((R)-Cyclopropyl(2-(3,3-difluorocyclobutyl)acetamido)methyl)imidazo[1,2-b]pyridazin-2-yl)(4,4-difluorocyclohexyl)methyl)-4-methyl-1,2,5-oxadiazole-3-carboxamide]	140 nM	–
43 nM	O=C(CCC(F)(F)F)N[C@@H](c1cnn2cc([C@@H](NC(=O)c3nocc3OCC(F)F)C3CCC(F)(F)CC3)nc2c1)C1CC1 [Example 375, N—((S)-(7-((R)-Cyclopropyl(4,4,4-trifluorobutanamido)methyl)imidazo[1,2-b]pyridazin-2-yl)(4,4-difluorocyclohexyl)methyl)-4-(2,2-difluoroethoxy)isoxazole-3-carboxamide]	170 nM	–
250 nM	CC(CC(=O)N[C@@H](c1cnn2cc([C@@H](NC(=O)c3conc3OCC(F)F)C3CCC(F)(F)CC3)nc2c1)C1CC1)C(F)(F)F (single isomer, unassigned) [Example 298, N—((S)-(7-((R)-Cyclopropyl((R*)-4,4,4-trifluoro-3-methylbutanamido)methyl)imidazo[1,2-b]pyridazin-2-yl)(4,4-difluorocyclohexyl)methyl)-3-(2,2-difluoroethoxy)isoxazole-4-carboxamide]	610 nM	–
91 nM	Cc1nonc1C(=O)N[C@H](c1cn2ncc([C@H](NC(=O)CC3CC(F)(F)C3(F)F)C3CC3)cc2n1)C1CCC(F)(F)CC1 (single isomer, unassigned) [Example 325, N—((S)-(7-((R)-Cyclopropyl(2-((S*)-2,2,3,3-tetrafluorocyclobutyl)acetamido)methyl)imidazo[1,2-b]pyridazin-2-yl)(4,4-difluorocyclohexyl)methyl)-4-methyl-1,2,5-oxadiazole-3-carboxamide]	–	300 nM
37 nM	O=C(CCC(F)(F)F)N[C@@H](c1cnn2cc([C@@H](NC(=O)c3cc(OC(F)F)ccc3F)C3CCC(F)(F)CC3)nc2c1)C1CC1 [Example 169, N—((S)-(7-((R)-Cyclopropyl(4,4,4-trifluorobutanamido)methyl)imidazo[1,2-b]pyridazin-2-yl)(4,4-difluorocyclohexyl)methyl)-5-(difluoromethoxy)-2-fluorobenzamide]	200 nM	–
100 nM	CCc1cncc(C(=O)N[C@H](c2cn3ncc([C@H](NC(=O)CCC(F)(F)F)C4CC4)cc3n2)C2CCC(F)(F)CC2)c1 [Example 452, N—((S)-(7-((R)-Cyclopropyl(4,4,4-trifluorobutanamido)methyl)imidazo[1,2-b]pyridazin-2-yl)(4,4-difluorocyclohexyl)methyl)-5-ethylnicotinamide]	570 nM	–
51 nM	O=C(CCC(F)(F)F)N[C@@H](c1cnn2cc([C@@H](NC(=O)c3nonc3OCC(F)F)C3CCC(F)(F)CC3)nc2c1)C1CC1 [Example 383, N—((S)-(7-((R)-Cyclopropyl(4,4,4-trifluorobutanamido)methyl)imidazo[1,2-b]pyridazin-2-yl)(4,4-difluorocyclohexyl)methyl)-4-(2,2-difluoroethoxy)-1,2,5-oxadiazole-3-carboxamide]	19 nM	–
